Source: PubChem BioAssay (NCI)
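How tested: cells in 96-well plates exposed to compound for 48 hours at five concentrations. Definition used: TGI = concentration required for complete inhibition of growth.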

Tests used:
Experiment in all cases: NCI-60 cell line screen, 48 h
IGROV1 ovarian = test system: IGROV1 ovarian
M14 melanoma = test system: M14 melanoma
SK-OV-3 ovarian = test system: SK-OV-3 ovarian
UO-31 renal = test system: UO-31 renal
RXF 393 renal = test system: RXF 393 renal
LOX IMVI melanoma = test system: LOX IMVI melanoma
OVCAR-4 ovarian = test system: OVCAR-4 ovarian
MOLT-4 leukemia = test system: MOLT-4 leukemia
TK-10 renal = test system: TK-10 renal
NCI-H460 lung = test system: NCI-H460 lung
SNB-19 CNS = test system: SNB-19 CNS
786-0 renal = test system: 786-0 renal
U251 CNS = test system: U251 CNS
A549 NSCLC = test system: A549 NSCLC
BT-549 breast = test system: BT-549 breast
EKVX NSCLC = test system: EKVX NSCLC
UACC-62 melanoma = test system: UACC-62 melanoma
T-47D breast = test system: T-47D breast
SK-MEL-28 melanoma = test system: SK-MEL-28 melanoma
DU-145 prostate = test system: DU-145 prostate
SN12C renal = test system: SN12C renal
HCT-116 colon = test system: HCT-116 colon
KM12 colon = test system: KM12 colon
SK-MEL-2 melanoma = test system: SK-MEL-2 melanoma
UACC-257 melanoma = test system: UACC-257 melanoma
NCI-H23 lung = test system: NCI-H23 lung
OVCAR-5 ovarian = test system: OVCAR-5 ovarian
HCC-2998 colon = test system: HCC-2998 colon
SF-295 CNS = test system: SF-295 CNS
CCRF-CEM leukemia = test system: CCRF-CEM leukemia
SF-268 CNS = test system: SF-268 CNS
NCI-H522 lung = test system: NCI-H522 lung
OVCAR-3 ovarian = test system: OVCAR-3 ovarian
MDA-N = test system: MDA-N
SNB-75 CNS = test system: SNB-75 CNS
HOP-92 NSCLC = test system: HOP-92 NSCLC
CAKI-1 renal = test system: CAKI-1 renal
HS 578T breast = test system: HS 578T breast
HT29 colon = test system: HT29 colon
SF-539 CNS = test system: SF-539 CNS
MALME-3M melanoma = test system: MALME-3M melanoma
HCT-15 colon = test system: HCT-15 colon
SW-620 colon = test system: SW-620 colon
PC-3 prostate = test system: PC-3 prostate
MCF7 breast = test system: MCF7 breast
HL-60(TB) leukemia = test system: HL-60(TB) leukemia
MDA-MB-435 = test system: MDA-MB-435
NCI-H226 lung = test system: NCI-H226 lung
SK-MEL-5 melanoma = test system: SK-MEL-5 melanoma
HOP-62 NSCLC = test system: HOP-62 NSCLC
OVCAR-8 ovarian = test system: OVCAR-8 ovarian
A498 renal = test system: A498 renal
RPMI-8226 leukemia = test system: RPMI-8226 leukemia
MDA-MB-231 breast = test system: MDA-MB-231 breast
NCI/ADR-RES ovarian = test system: NCI/ADR-RES ovarian
ACHN renal = test system: ACHN renal
COLO 205 colon = test system: COLO 205 colon
K-562 leukemia = test system: K-562 leukemia

CC(=O)NC1C(OCc2ccccc2)OC(CO)C(O)C1OCC(=O)N1CCCC1C(=O)N[C@@H](CCC(=O)NCCNCCNc1c2ccccc2nc2cccc([N+](=O)[O-])c12)C(N)=O (stereo partly drawn)
TGI (IGROV1 ovarian): 14.5 µM | TGI (M14 melanoma): 6.4 µM | TGI (SK-OV-3 ovarian): 83.3 µM | TGI (UO-31 renal): 14.8 µM | TGI (RXF 393 renal): 6.58 µM | TGI (LOX IMVI melanoma): 20.1 µM | TGI (OVCAR-4 ovarian): 14.1 µM | TGI (MOLT-4 leukemia): > 100 µM | TGI (TK-10 renal): 21.4 µM | TGI (NCI-H460 lung): 6.63 µM | TGI (SNB-19 CNS): 26.1 µM | TGI (786-0 renal): 9.17 µM | TGI (U251 CNS): 12.4 µM | TGI (A549 NSCLC): 9.83 µM | TGI (BT-549 breast): 18.9 µM | TGI (EKVX NSCLC): 26.6 µM | TGI (UACC-62 melanoma): 15.5 µM | TGI (T-47D breast): 93.6 µM | TGI (SK-MEL-28 melanoma): 18.2 µM | TGI (DU-145 prostate): > 21.2 µM | TGI (SN12C renal): 10.6 µM | TGI (HCT-116 colon): 5.26 µM | TGI (KM12 colon): 15.6 µM | TGI (SK-MEL-2 melanoma): 10.8 µM | TGI (UACC-257 melanoma): 15.6 µM | TGI (NCI-H23 lung): 10.6 µM | TGI (OVCAR-5 ovarian): 23.1 µM | TGI (HCC-2998 colon): 8.46 µM | TGI (SF-295 CNS): 28.6 µM | TGI (CCRF-CEM leukemia): 6.22 µM | TGI (SF-268 CNS): 25.1 µM | TGI (NCI-H522 lung): 3.96 µM | TGI (OVCAR-3 ovarian): 20.4 µM | TGI (MDA-N): 6.17 µM | TGI (SNB-75 CNS): 24.8 µM | TGI (HOP-92 NSCLC): 5.61 µM | TGI (CAKI-1 renal): 16.5 µM | TGI (HS 578T breast): 23.2 µM | TGI (HT29 colon): 9.02 µM | TGI (SF-539 CNS): 10.4 µM | TGI (MALME-3M melanoma): 7.35 µM | TGI (HCT-15 colon): 11.8 µM | TGI (SW-620 colon): 24.5 µM | TGI (PC-3 prostate): 13.7 µM | TGI (MCF7 breast): 19.9 µM | TGI (HL-60(TB) leukemia): > 39.5 µM | TGI (MDA-MB-435): 5.63 µM | TGI (NCI-H226 lung): 33.8 µM | TGI (SK-MEL-5 melanoma): 3.38 µM | TGI (HOP-62 NSCLC): 11.7 µM | TGI (OVCAR-8 ovarian): 15.4 µM | TGI (A498 renal): 9.21 µM | TGI (RPMI-8226 leukemia): 3.29 µM | TGI (MDA-MB-231 breast): 9.03 µM | TGI (NCI/ADR-RES ovarian): 33.5 µM | TGI (ACHN renal): 15.3 µM | TGI (COLO 205 colon): 4.97 µM | TGI (K-562 leukemia): > 100 µM
